Reference: US20240295566A1, “METHOD FOR DIAGNOSING AND TREATING METABOLIC DISORDERS” (Centre for Chinese Herbal Medicine Drug Development Limited, priority 2023, published 2024)

Columns and labels:
ERK1/2 phosphorylation [1] = experiment: Western blot of ERK activation in 3T3-L1 cells; type: cell-based; conditions: for ERK phosphorylation induced by tryptamine and phenethylamine: tryptamine or phenethylamine 25 μM, pre-treatment with inhibitor 20 μM; for ERK1/2 phosphorylation: 25 μM
Method: (§1) 3T3-L1 adipocytes (ATCC CL-173) were cultured and maintained in DMEM with 10% (v/v) FBS. For the glucose uptake assay, 3T3-L1 cells were serum- and glucose-starved for 3 hours and then incubated with glucose, FBS, insulin and tryptamine for 30 min as indicated. To assess the effect of tryptamine on insulin signaling, 3T3-L1 cells were pre-treated with or without tryptamine, ERK inhibitor or TAAR1 antagonist EPPTB, and then treated with insulin at the indicated concentration. The effect of IAA on insulin signaling was evaluated by treating 3T3-L1 cells with or without IAA followed by insulin for the indicated times. Tryptamine, U0126 and EPPTB were dissolved in DMSO at 100 mM as a stock solution. For cAMP measurements, 3T3-L1 cells were pre-treated with or without EPPTB for 60 min and then treated with tryptamine for the indicated times.
(§2) Frozen tissues and harvested cells were lysed in RIPA buffer with a protease inhibitor cocktail. For western blotting, the cell lysates and tissue lysates were centrifuged at 15,000 rpm for 15 min at 4° C. The supernatant was mixed with 5× loading buffer and heated at 98° C. on a dry bath for 10 min. The target proteins were then detected in the samples as per manufacturer instructions. The blots were incubated with HRP-linked anti-rabbit IgG or anti-mouse IgG and reacted with enhanced chemiluminescence. The quantification of protein bands from western blots was analyzed using Image J.

[2] = Insulin tolerance test (ITT) in mice; type: in vivo, mouse; conditions: for insulin sensitivity in control mice (ITT): control mice without tryptamine, inhibitor alone; for tryptamine-induced insulin resistance (ITT): tryptamine (10 mg/kg)-treated mice plus inhibitor i.p. (U0126 20 mg/kg, PD98059 10 mg/kg, EPPTB 10 mg/kg); for insulin sensitivity (ITT): normal mice, substance given alone (tryptamine 0.4, 2, 10 mg/kg; phenethylamine 1, 2, 5 mg/kg i.p.)
Method: (§3) For the oral glucose tolerance test (OGTT), mice were fasted for 12 hours (overnight) and administered with tryptamine, ERK inhibitors, TAAR1 antagonist or IAA at indicated dosages. After 30 min, mice were given glucose at a dosage of 2 g/kg. Blood samples were collected from the tail vein for glucose measurement using Accu-Chek glucose meters at 0, 15, 30, 60, 90 and 120 min after the glucose challenge. For the insulin tolerance test (ITT), mice were fasted for 4 hours and administered with tryptamine, ERK inhibitors or a TAAR1 antagonist at indicated dosages. After 30 min, insulin (1 U/kg) was injected intraperitoneally into the mice. Blood glucose levels were measured as per OGTT. For the measurement of serum insulin and TG, serum was collected 120 min after the mice were treated with tryptamine.

[3] = tested on: insulin-induced AKT phosphorylation; experiment: Western blot of insulin signaling (AKT phosphorylation) in 3T3-L1 cells; type: cell-based; conditions: insulin 20 nM; for inhibitory effects of tryptamine and phenethylamine on insulin-stimulated AKT phosphorylation / insulin-induced AKT phosphorylation: 3T3-L1 cells; for inhibitory effects of tryptamine and phenethylamine on insulin-stimulated AKT phosphorylation: tryptamine or phenethylamine 25 μM, inhibitor 20 μM; for insulin-induced AKT phosphorylation: precursors and metabolites at 100 μM; for insulin signaling: 3T3-L1 adipocytes, 25 μM
Method: as §1, with “For” for “3T3-L1 adipocytes (ATCC CL-173) were cultured and maintained in DMEM with 10% (v/v) FBS. For”
as §2

[4] = Oral glucose tolerance test (OGTT) in mice; type: in vivo, mouse; conditions: for glucose tolerance in control mice (OGTT): control mice without tryptamine, inhibitor alone; for tryptamine-induced glucose intolerance (OGTT): tryptamine (10 mg/kg)-treated mice plus inhibitor i.p. (U0126 20 mg/kg, PD98059 10 mg/kg, EPPTB 10 mg/kg); for glucose tolerance (OGTT): normal mice, substance given alone (tryptamine 0.4, 2, 10 mg/kg; phenethylamine 1, 2, 5 mg/kg i.p.)
Method: as §3

ERK1/2 phosphorylation [5] = experiment: Western blot of ERK activation in WAT, liver and skeletal muscle lysates from mice; type: in vivo, mouse; conditions: for tryptamine-induced ERK phosphorylation in tissues: tryptamine 10 mg/kg plus inhibitor (U0126 20 mg/kg or EPPTB 10 mg/kg), WAT and liver lysates
Method: as §2

[6] = tested on: insulin-induced Akt phosphorylation; experiment: Western blot of insulin-stimulated AKT phosphorylation in WAT, liver and skeletal muscle lysates from mice; type: in vivo, mouse; conditions: insulin 1 U/kg; for inhibitory effects of tryptamine on insulin-stimulated AKT phosphorylation in tissues: tryptamine 10 mg/kg plus inhibitor (U0126 20 mg/kg or EPPTB 10 mg/kg), WAT and liver lysates; for insulin-induced Akt phosphorylation in major metabolic tissues: WAT, liver, skeletal muscle, tryptamine 10 mg/kg or phenethylamine 5 mg/kg i.p.
Method: as §2

[7] = mouse, in vivo, 15 min
Method: (§4) Tryptamine at a dosage of 5 mg/kg (dissolved in 0.5% CMC-Na) was orally administered to mice. After 15 min, mice were euthanized by isoflurane and sacrificed by cervical dislocation. Serum, liver, skeletal muscle and WAT were collected and stored at −80° C. until analysis. About 80 mg of biological tissues were extracted with a 20× volume of 70% methanol (m/v) and then homogenized with steel beads. The samples were then centrifuged at 14,000 rpm at 4° C. for 15 min. About 200 μL of the supernatant was transferred to new tubes for LC-MS analysis.

Serum TG level in mice = type: in vivo, mouse; conditions: normal mice, i.p.
Method: as §3

[8] = Serum insulin level in monkeys; type: in vivo, Macaca fascicularis; conditions: normal monkeys, single dose 10 mg/kg via oral gavage
Method: The first crab-eating macaques (Macaca fascicularis) metabolomics study is performed with ethics approval (No. YMB1704) by Yunnan Yinmore Biotechnology company (Kunming, China). The diagnosis of diabetes for monkeys was based on published criteria. Specifically, age-matched (10-23 years old) monkeys were categorized as normal (Define as FBG<75 mg/dL and Hb1Ac<3.5%), pre-diabetes (FBG 80-130 mg/dL and Hb1Ac 4.0%-6.0%) and diabetes (FBG>130 mg/dL and Hb1Ac>6.0%) (n=26 for each group). Biological samples including serum and feces were collected and stored at −80° C. until analysis. The second crab-eating macaques (n=5) intervention study is performed with ethics approval (No. HZ2021047) by Huazhen Biosciences company (Guangzhou, China). Biochemical parameters including OGTT and serum insulin level were measured before and after tryptamine treatment. No crab-eating macaques were treated with anti-diabetic medication during these studies.
To understand the role of tryptamine and phenethylamine in the pathophysiology of insulin resistance, tryptamine and phenethylamine were administered to normal mice within the pathophysiological range detected in the fecal samples of T2D subjects. […]

3T3-L1 adipocytes = experiment: Glucose uptake assay in 3T3-L1 cells; type: cell-based; conditions: 5, 10 and 25 μM
Method: as §1

[9] = tested on: insulin signaling-related proteins; experiment: Phospho-proteomics study of mouse tissue; type: in vivo; conditions: mice, insulin-sensitive tissues (WAT), tryptamine treatment
Method: Mice were fasted for 4 hours and orally administered with tryptamine or vehicle. The WAT tissues were collected for the phosphoproteomics study. Mice tissue samples used for the TMT-labeled phosphoproteomics study were prepared as previously reported. An Easy nLC system (Thermo Fisher Scientific) with an Acclaim PepMap RSLC column (50 μm×15 cm) was used to separate the TMT-labelled peptides. The mobile phase used in LC-MS-Orbitrap was A: water with 0.1% formic acid and B: 80% acetonitrile, 20% water with 0.1% formic acid. The elution gradient was set as 0-5 min in 0-6% buffer B, 5-45 min in 6-28% buffer B, 45-50 min in 28%-38% buffer B, 50-55 min 38-100% buffer B and maintained during […] in 100% buffer B. The obtained MS/MS spectra were processed by Proteome Discoverer (Thermo Fisher Scientific) and searched using MASCOT engine 2.6. All protein sequences were aligned to the Mus musculus database downloaded from UniProt (http://www.uniprot.org). The proteins with a fold change>1.2 or <0.8 and a p-value<0.05 were considered as differentially expressed proteins.

[10] = Tissue distribution of tryptamine; conditions: mice, oral gavage of tryptamine 5 mg/kg, within 15 min
Method: as §4

[11] = Intravenous glucose tolerance test (IVGTT) in monkeys; type: in vivo, Macaca fascicularis; conditions: normal monkeys, single dose 10 mg/kg via oral gavage
[12] = antibiotics-treated mice colonized with R. gnavus ATCC 29149, EPPTB 10 mg/kg i.p.

## CCOc1cccc(NC(=O)c2ccc(N3CCCC3)c(C(F)(F)F)c2)c1 [EPPTB, N-(3-ethoxy-phenyl)-4-pyrrolidin-1-yl-3-trifluoromethyl-benzamide]
ERK1/2 phosphorylation [1]
  ERK phosphorylation induced by tryptamine and phenethylamine: significantly downregulated
[2]; [12]
  R. gnavus-induced lower insulin sensitivity (ITT): partially abrogated
[2]
  insulin sensitivity in control mice (ITT): did not affect
  tryptamine-induced insulin resistance (ITT): significantly reduced
[3]
  inhibitory effects of tryptamine and phenethylamine on insulin-stimulated AKT phosphorylation: reversed the inhibitory effects
[4]; [12]
  R. gnavus-induced impaired glucose tolerance (OGTT): partially abrogated
[4]
  glucose tolerance in control mice (OGTT): did not affect
  tryptamine-induced glucose intolerance (OGTT): significantly reduced
ERK1/2 phosphorylation [5]
  tryptamine-induced ERK phosphorylation in tissues: downregulated
[6]
  inhibitory effects of tryptamine on insulin-stimulated AKT phosphorylation in tissues: abolished the inhibitory effects

## COc1cccc(-c2cc(=O)c3ccccc3o2)c1N [PD98059]
[2]
  insulin sensitivity in control mice (ITT): negligible effects
  tryptamine-induced insulin resistance (ITT): significantly improved
[4]
  glucose tolerance in control mice (OGTT): negligible effects
  tryptamine-induced glucose intolerance (OGTT): significantly improved

## N#CC(=C(/N)Sc1ccccc1N)/C(C#N)=C(\N)Sc1ccccc1N [U0126]
ERK1/2 phosphorylation [1]
  ERK phosphorylation induced by tryptamine and phenethylamine: blocked
[2]
  insulin sensitivity in control mice (ITT): negligible effects
  tryptamine-induced insulin resistance (ITT): significantly improved
[3]
  inhibitory effects of tryptamine and phenethylamine on insulin-stimulated AKT phosphorylation: significantly suppressed the inhibitory effects
[4]
  glucose tolerance in control mice (OGTT): negligible effects
  tryptamine-induced glucose intolerance (OGTT): significantly improved
ERK1/2 phosphorylation [5]
  tryptamine-induced ERK phosphorylation in tissues: significantly downregulated
[6]
  inhibitory effects of tryptamine on insulin-stimulated AKT phosphorylation in tissues: abolished the inhibitory effects

## O=C(O)Cc1c[nH]c2ccccc12 [indole-3-acetic acid]
[2]
  insulin sensitivity (ITT): did not impair
[3]
  insulin-induced AKT phosphorylation: did not alter
[7]
  IAA concentration relative to that of tryptamine in serum: 40-100 fold
[4]
  glucose tolerance (OGTT): did not impair

## NCCc1ccccc1 [phenethylamine]
Serum TG level in mice
  serum TG levels: significant elevation
ERK1/2 phosphorylation [1]
  ERK1/2 phosphorylation: induced ERK1/2 phosphorylation in a time-dependent manner
[2]
  insulin sensitivity (ITT): remarkably inhibitory effects
[3]
  insulin signaling: inhibited insulin signaling in a time-dependent manner
[4]
  glucose tolerance (OGTT): remarkably inhibitory effects
[6]
  insulin-induced Akt phosphorylation in major metabolic tissues: significantly suppressed

## O=C(O)Cc1ccccc1 [phenylacetic acid]
[3]
  insulin-induced AKT phosphorylation: did not alter

## N[C@@H](Cc1ccccc1)C(=O)O [phenylalanine]
[3]
  insulin-induced AKT phosphorylation: did not alter

## NCCc1c[nH]c2ccccc12 [tryptamine]
[8]
  serum insulin levels: significant elevation
3T3-L1 adipocytes
  basal glucose uptake: inhibited basal glucose uptake in a dose-dependent manner
[9]
  insulin signaling-related phospho-proteins (HSL, ERK, SH3D5): upregulated
Serum TG level in mice
  serum TG levels: significant elevation
[10]
  metabolite indole-3-acetic acid (IAA) levels in serum and insulin-sensitive tissues: significantly increased
[10]; serum, WAT, liver, skeletal muscle
  tryptamine levels in serum and insulin-sensitive tissues: significantly increased
ERK1/2 phosphorylation [1]
  ERK1/2 phosphorylation: induced ERK1/2 phosphorylation in a time-dependent manner
[11]
  blood glucose levels in the glucose challenge (IVGTT): higher blood glucose levels
[2]
  insulin sensitivity (ITT): remarkably inhibitory effects
[3]
  insulin signaling: inhibited insulin signaling in a time-dependent manner
[4]
  glucose tolerance (OGTT): remarkably inhibitory effects
ERK1/2 phosphorylation [5]; tryptamine 10 mg/kg i.p., WAT, liver, skeletal muscle
  ERK1/2 phosphorylation in insulin-sensitive tissues: upregulated
[6]
  insulin-induced Akt phosphorylation in major metabolic tissues: significantly suppressed

## N[C@@H](Cc1c[nH]c2ccccc12)C(=O)O [tryptophan]
[3]
  insulin-induced AKT phosphorylation: did not alter
